# Laboratory results taken from paper PMC7400437, “Synthesis and Evaluation of the Antibacterial Activities of 13-Substituted Berberine Derivatives” (Antibiotics, 2020).
# Like-named read-outs stand apart in the source and are kept apart here.
# How the values were obtained:
# B. subtilis = assay: Bacterial membrane permeabilization assay (propidium iodide); assay type: cell-based, Bacillus subtilis; conditions: for membrane permeabilization at 4-times MIC, B. subtilis: 4-times their MIC; for maximal membrane permeabilization, B. subtilis: 120 min exposure to 100 µM, CTAB 300 µM = 100%
# Procedure: (§1) Membrane permeabilization by berberine derivatives was evaluated using the cell-impermeable DNA/RNA probe propidium iodide as previously explained. Logarithmic growing bacterial suspensions were prepared from overnight bacterial suspension by 1 in 10 dilution. After 3 h incubation at 37 °C, 200 rpm, bacterial suspensions were centrifuged for 5 min at 3000 rpm. Cell pellets were then resuspended in sterile PBS at about 10^9 cells/mL. Propidium iodide (Sigma Aldrich) was then added to the suspension at a final concentration of 60 µM. 100 µL of this suspension were then transferred into 96-well black plates (Dominique Dutscher) and exposed to increasing concentrations of berberine’s derivative (from 0 to 100 µM, 1:2 dilution). […] All steps of the assay were performed in aerobic condition except for H. pylori which was done in microaerobic condition generated with GasPak unit (Sigma Aldrich). Bacteria were incubated at 37 °C and the kinetics of fluorescence variations (excitation at 530 nm and emission at 590 nm) were then recorded over time using a Synergy Mx microplate reader (Biotek). Cetyl trimethylammonium bromide (CTAB) at 300 µM was used as positive control giving 100% permeabilization. Results were expressed in % of permeabilization. All experiments were done in triplicate.
# C. perfringens = assay: microbe, parasite or virus in culture; assay type: cell-based, Clostridium perfringens (ATCC 13124); conditions: Clostridium perfringens, read-out: MIC C. perfringens
# S. aureus [1] = assay: Bacterial membrane permeabilization assay (propidium iodide); assay type: cell-based, Staphylococcus aureus; conditions: for membrane permeabilization at 4-times MIC, S. aureus: 4-times their MIC; for maximal membrane permeabilization, S. aureus: 120 min exposure to 100 µM, CTAB 300 µM = 100%
# Procedure: as §1
# [2] = tested on: bacterial DNA extracted from B. subtilis; assay: DNA fragmentation assay; conditions: 6 h at 37 °C, 4-times their MIC
# C. rodentium = assay: MIC, antimicrobial activity assay; assay type: cell-based, Citrobacter rodentium (ATCC 51116); conditions: Citrobacter rodentium; Table 4, Gram-negative
# B. cereus = assay: MIC, antimicrobial activity assay; assay type: cell-based; conditions: Bacillus cereus; Table 4, Gram-positive
# [3] = tested on: B. subtilis (Nisin-resistant); assay: MIC, antimicrobial activity assay; assay type: cell-based, nisin-resistant B. subtilis (DSMZ 347); conditions: Bacillus subtilis, read-out: MIC B. subtilis (Nisin-resistant)
# [4] = tested on: HepG2 (human liver cells); assay: Cytotoxic assay on human cells (resazurin); assay type: cell-based; conditions: HepG2, 48 h, read-out: Inhibitory Concentration 50 (IC50) on cell viability, HEPG2
# Procedure, shortened: (§2)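 Cells grown to confluence (48–72 h) were exposed for 48 h at 37 °C to 1:2 serial dilutions from 0 to 50 µM, with 0.5% DMSO as negative control. Resazurin 1:10 in PBS++ was added for 4 h, and fluorescence was read at 530/590 nm and normalized to DMSO wells. IC50 is the concentration giving 50% viability reduction.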
# [5] = tested on: BEAS (human airway epithelial cells); assay: Cytotoxic assay on human cells (resazurin); assay type: cell-based; conditions: Epithelial cell, 48 h, means +/−SD, read-out: Inhibitory Concentration 50 (IC50) on cell viability, BEAS
# Procedure, shortened: as §2
# [6] = tested on: Caco2 (human intestinal epithelial cells); assay: Cytotoxic assay on human cells (resazurin); assay type: cell-based; conditions: for IC50: Homo sapiens, Caco-2, 48 h, read-out: Inhibitory Concentration 50 (IC50) on cell viability, Caco2; for therapeutic index Caco2: IC50 on Caco2 divided by MIC on S. aureus
# V. diabolicus = assay: MIC, antimicrobial activity assay; assay type: cell-based; conditions: Vibrio diabolicus; Table 4, Gram-negative
# K. pneumonia = assay: MIC, antimicrobial activity assay; assay type: cell-based, Klebsiella pneumoniae (DSMZ 26371); conditions: Klebsiella pneumoniae; Table 4, Gram-negative
# [7] = tested on: bacterial DNA extracted from V. alginolyticus; assay: DNA fragmentation assay; conditions: 6 h at 37 °C, 4-times their MIC
# S. pyogenes = assay: MIC, antimicrobial activity assay; assay type: cell-based, Streptococcus pyogenes (DSM 20565); conditions: Streptococcus pyogenes; Table 4, Gram-positive; anaerobic
# [8] = tested on: DNA extracted from H. pylori; assay: DNA fragmentation assay; conditions: data not shown
# V. alginolyticus [9] = assay: MIC, antimicrobial activity assay; assay type: cell-based, Vibrio alginolyticus (DSM 2171); conditions: Vibrio alginolyticus; Table 4, Gram-negative
# S. aureus [10] = assay: MIC, antimicrobial activity assay; assay type: cell-based, Staphylococcus aureus (ATCC 6538P); conditions: Staphylococcus aureus
# V. alginolyticus [11] = assay: Macromolecule synthesis inhibition assay by fluorescent microscopy (morphological changes); conditions: 4 × MIC, 2 h, 37 °C; for Observed Morphology: DNA, V. alginolyticus: DAPI; for Observed Morphology: cell membrane, V. alginolyticus: FM4-64FX; for Known/Possible Target, V. alginolyticus: inferred from morphology
# [12] = Table 1 first screening, read-out: Minimal Inhibitory Concentration (MIC) S. aureus
# [13] = Table 4, Gram-positive, read-out: MIC S. aureus
smiles,measurement,setting,value
"COc1ccc(C(=O)/C=C/c2ccc(Cc3c4[n+](cc5c(OC)c(OC)ccc35)CCc3cc5c(cc3-4)OCO5)cc2)c(O)c1 [Compound 25, (2E)-3-{4-[(Berberin-13-yl)methyl]phenyl}-1-(2-hydroxy-4-methoxyphenyl)prop-2-en-1-one]","membrane permeabilization at 4-times MIC, B. subtilis",B. subtilis,low to no membrane permeabilization
same,"maximal membrane permeabilization, B. subtilis",B. subtilis,10–15%
same,MIC,C. perfringens,25 µM
same,"membrane permeabilization at 4-times MIC, S. aureus",S. aureus [1],low to no membrane permeabilization
same,"maximal membrane permeabilization, S. aureus",S. aureus [1],80–100%
same,"DNA fragmentation, B. subtilis DNA",[2],did not caused DNA fragmentation
same,MIC,C. rodentium,> 100 µM
same,MIC,B. cereus,6.25 µM
same,MIC,[3],6.25 µM
same,IC50,[4],> 50 µM
same,IC50,[5],8.87 ± 1.5 µM
same,IC50,[6],10.5 ± 0.7 µM
same,therapeutic index Caco2,[6],3.37
same,MIC,V. diabolicus,> 100 µM
same,MIC,K. pneumonia,> 100 µM
same,"DNA fragmentation, V. alginolyticus DNA",[7],did not caused DNA fragmentation
same,MIC,S. pyogenes,6.25 µM
same,"DNA fragmentation, H. pylori DNA",[8],failed at causing the fragmentation of DNA
same,MIC,V. alginolyticus [9],3.12 µM
same,MIC,S. aureus [10]; [12],3.12 µM
same,MIC,S. aureus [10]; [13],3.12 µM
same,"Observed Morphology: cell elongation, V. alginolyticus",V. alginolyticus [11],2–7 times compared to control
same,"Observed Morphology: cells connected, V. alginolyticus",V. alginolyticus [11],1–2 cells connected
same,"Observed Morphology: DNA, V. alginolyticus",V. alginolyticus [11],Condensed DNA spanning the cell
same,"Observed Morphology: cell membrane, V. alginolyticus",V. alginolyticus [11],Cell membrane pigmentation
same,"Known/Possible Target, V. alginolyticus",V. alginolyticus [11],RNA biosynthesis
"COc1cc(C(=O)Cc2c3[n+](cc4c(OC)c(OC)ccc24)CCc2cc4c(cc2-3)OCO4)cc(OC)c1OC(=O)c1ccccc1 [Compound 16, 4-[2-(Berberin-13-yl)acetyl]-2,6-dimethoxyphenyl Benzoate]","membrane permeabilization at 4-times MIC, B. subtilis",B. subtilis,low to no membrane permeabilization
same,"maximal membrane permeabilization, B. subtilis",B. subtilis,10–15%
same,MIC,C. perfringens,25 µM
same,"membrane permeabilization at 4-times MIC, S. aureus",S. aureus [1],low to no membrane permeabilization
same,"maximal membrane permeabilization, S. aureus",S. aureus [1],80–100%
same,"DNA fragmentation, B. subtilis DNA",[2],did not caused DNA fragmentation
same,MIC,C. rodentium,> 100 µM
same,MIC,B. cereus,12.5 µM
same,MIC,[3],12.5 µM
same,IC50,[4],> 50 µM
same,IC50,[5],> 50 µM
same,IC50,[6],> 50 µM
same,therapeutic index Caco2,[6],10.36
same,MIC,V. diabolicus,> 100 µM
same,MIC,K. pneumonia,> 100 µM
same,"DNA fragmentation, V. alginolyticus DNA",[7],did not caused DNA fragmentation
same,MIC,S. pyogenes,6.25 µM
same,"DNA fragmentation, H. pylori DNA",[8],failed at causing the fragmentation of DNA
same,MIC,V. alginolyticus [9],3.12 µM
same,MIC,S. aureus [10]; [12],6.25 to 12.5 µM
same,MIC,S. aureus [10]; [13],6.25 µM
same,"Observed Morphology: cell elongation, V. alginolyticus",V. alginolyticus [11],2–4 times compared to control
same,"Observed Morphology: cells connected, V. alginolyticus",V. alginolyticus [11],2–4 cells connected
same,"Observed Morphology: DNA, V. alginolyticus",V. alginolyticus [11],Decondensed DNA spanning cell
same,"Observed Morphology: cell membrane, V. alginolyticus",V. alginolyticus [11],Cell membrane thickening
same,"Known/Possible Target, V. alginolyticus",V. alginolyticus [11],Cell wall biosynthesis
